Experiments:
Experiment in all cases: Paper disk method, enhancing action for activities of azole antifungal agents
Assay type in all cases: cell-based
[1] = system: Aspergillus niger ATCC 6275; conditions: 48 hours; for Inhibition activity (inhibition ring mm) A. niger ATCC 6275 GYF / Transparency of the inhibition ring A. niger ATCC 6275 GYF: fluconazole 10 μg/ml; for Inhibition activity (inhibition ring mm) A. niger ATCC 6275 GY / Transparency of the inhibition ring A. niger ATCC 6275 GY: GY medium (control, no azole); for Inhibition activity (inhibition ring mm) A. niger ATCC 6275 GYM / Transparency of the inhibition ring A. niger ATCC 6275 GYM: miconazole 0.1 μg/ml
Experimental: (§1) Test organisms used were Candida albicans ATCC 64548, fluconazole resistant Candida albicans ATCC 64550 and Aspergillus niger ATCC 6275. Candida spp. were cultured in Waksman broth (glucose 2.0%, peptone 0.5%, dry yeast 0.3%, meat extract 0.5%, NaCl 0.5% and CaCO3 0.3%, pH 7.0) at 27° C. for 40 hours, then 0.1% thereof was inoculated on GY agar medium (glucose 1.0%, yeast extract 0.5% and agar 0.8%, pH 6.0). Spore suspension 0.2% of Aspergillus niger ATCC 6275 was inoculated on GY agar medium.
(§2) Azole antifungal agents used were miconazole (Sigma Inc., the U.S.) and fluconazole (ICN Pharmaceuticals, Inc., the U.S.), and were added at concentrations without affecting growth on each test organisms follows.
Aspergillus niger ATCC 6275: miconazole 0.1 μg/ml or fluconazole 10 μg/ml.
(§3) In the above medium, a medium added with miconazole to GY medium (control) is designated as GYM, and a medium added with fluconazole is designated as GYF. Activities were assessed by means of paper disk method (thickness: 8 mm, ADVANTEC MFS INC., Japan). Diameter of inhibition ring is expressed with mm unit after culturing Candida spp. for 24 hours and Aspergillus niger ATCC 6275 for 48 hours. Transparency of the inhibition ring is assessed with 5 degrees of A, B, C, D and E (transparence<A<B<C<D<E<opaque).

[2] = system: fluconazole resistant Candida albicans ATCC 64550; conditions: 24 hours; for Inhibition activity (inhibition ring mm) C. albicans ATCC 64550 GYF / Transparency of the inhibition ring C. albicans ATCC 64550 GYF: fluconazole 30 μg/ml; for Inhibition activity (inhibition ring mm) C. albicans ATCC 64550 GYM / Transparency of the inhibition ring C. albicans ATCC 64550 GYM: miconazole 0.15 μg/ml
Experimental: as §1, §2
Candida albicans ATCC 64550: miconazole 0.15 μg/ml or fluconazole 30 μg/ml.
as §3

[3] = system: Candida albicans ATCC 64548; conditions: 24 hours; for Inhibition activity (inhibition ring mm) C. albicans ATCC 64548 GYM / Transparency of the inhibition ring C. albicans ATCC 64548 GYM: miconazole 0.03 μg/ml; for Inhibition activity (inhibition ring mm) C. albicans ATCC 64548 GYF / Transparency of the inhibition ring C. albicans ATCC 64548 GYF: fluconazole 0.5 μg/ml
Experimental: as §1, §2
Candida albicans ATCC 64548: miconazole 0.03 μg/ml or fluconazole 0.5 μg/ml.
as §3

| Structure (SMILES) | Inhibition activity (inhibition ring mm) A. niger ATCC 6275 GYF ([1]; 10 μg/8 mm disk) | Transparency of the inhibition ring A. niger ATCC 6275 GYF ([1]; 10 μg/8 mm disk) | Inhibition activity (inhibition ring mm) A. niger ATCC 6275 GY ([1]; 50 μg/8 mm disk) | Transparency of the inhibition ring A. niger ATCC 6275 GY ([1]; 50 μg/8 mm disk) | Inhibition activity (inhibition ring mm) A. niger ATCC 6275 GYF ([1]; 50 μg/8 mm disk) | Transparency of the inhibition ring A. niger ATCC 6275 GYF ([1]; 50 μg/8 mm disk) | Inhibition activity (inhibition ring mm) A. niger ATCC 6275 GYM ([1]; 50 μg/8 mm disk) | Transparency of the inhibition ring A. niger ATCC 6275 GYM ([1]; 50 μg/8 mm disk) | Inhibition activity (inhibition ring mm) C. albicans ATCC 64550 GYF ([2]; 50 μg/8 mm disk) | Transparency of the inhibition ring C. albicans ATCC 64550 GYF ([2]; 50 μg/8 mm disk) | Inhibition activity (inhibition ring mm) C. albicans ATCC 64550 GYM ([2]; 50 μg/8 mm disk) | Transparency of the inhibition ring C. albicans ATCC 64550 GYM ([2]; 50 μg/8 mm disk) | Inhibition activity (inhibition ring mm) C. albicans ATCC 64548 GYM ([3]; 10 μg/8 mm disk) | Transparency of the inhibition ring C. albicans ATCC 64548 GYM ([3]; 10 μg/8 mm disk) | Inhibition activity (inhibition ring mm) C. albicans ATCC 64548 GYF ([3]; 50 μg/8 mm disk) | Transparency of the inhibition ring C. albicans ATCC 64548 GYF ([3]; 50 μg/8 mm disk) | Inhibition activity (inhibition ring mm) C. albicans ATCC 64548 GYM ([3]; 50 μg/8 mm disk) | Transparency of the inhibition ring C. albicans ATCC 64548 GYM ([3]; 50 μg/8 mm disk) | Inhibition activity (inhibition ring mm) A. niger ATCC 6275 GYM ([1]; 10 μg/8 mm disk) | Transparency of the inhibition ring A. niger ATCC 6275 GYM ([1]; 10 μg/8 mm disk) | other results |
| --- | --- | --- | --- | --- | --- | --- | --- | --- | --- | --- | --- | --- | --- | --- | --- | --- | --- | --- | --- | --- | --- |
| CCC(OC(=O)c1ccccc1)C(C)(O)C1OC(=O)C(C)C(OC2CC(C)(OC)C(O)C(C)O2)C(C)C(OC2OC(C)CC(N(C)C)C2O)C2(C)CC(C)=C(O2)C1C (centres unmarked) [Compound 779, 13-O -benzoyl-8,9-Anhydro-pseudoerythro-mycin A 6,9-hemiketal] | 11 mm | E (Growth of test organism was inhibited 35% or less.) | 11 mm | E (Growth of test organism was inhibited 35% or less.) | 13 mm | D (Growth of test organism was inhibited 35% or more and 55% or less.) | 17 mm | E (Growth of test organism was inhibited 35% or less.) | 10 mm | E (Growth of test organism was inhibited 35% or less.) | 11 mm | D (Growth of test organism was inhibited 35% or more and 55% or less.) | 10 mm | E (Growth of test organism was inhibited 35% or less.) | 9 mm | D (Growth of test organism was inhibited 35% or more and 55% or less.) | 15 mm | A (Growth of test organism was inhibited 95% or more.) | – | – | – |
| CCC(OC(=O)c1ccccc1)C(C)(O)C1OC(=O)C(C)C(OC2CC(C)(OC)C(OC(=O)c3ccccc3)C(C)O2)C(C)C(OC2OC(C)CC(N(C)C)C2O)C2(C)CC(C)=C(O2)C1C (centres unmarked) [Compound 778, 4″,13-Di-O-benzoyl-8,9-Anhydro-pseudo-erythromycin A 6,9-hemiketal] | 12 mm | E (Growth of test organism was inhibited 35% or less.) | 10 mm | E (Growth of test organism was inhibited 35% or less.) | 13 mm | D (Growth of test organism was inhibited 35% or more and 55% or less.) | 16 mm | A (Growth of test organism was inhibited 95% or more.) | 13 mm | B (Growth of test organism was inhibited 75% of more and 95% or less.) | 14 mm | B (Growth of test organism was inhibited 75% of more and 95% or less.) | 12 mm | B (Growth of test organism was inhibited 75% of more and 95% or less.) | 9 mm | D (Growth of test organism was inhibited 35% or more and 55% or less.) | 16 mm | A (Growth of test organism was inhibited 95% or more.) | 14 mm | E (Growth of test organism was inhibited 35% or less.) | Inhibition activity (inhibition ring mm) C. albicans ATCC 64550 GYF ([2]; 10 μg/8 mm disk): 10 mm; Transparency of the inhibition ring C. albicans ATCC 64550 GYF ([2]; 10 μg/8 mm disk): E (Growth of test organism was inhibited 35% or less.) |
| CCC(OC(=O)c1ccccc1)C(C)(O)C1OC(=O)C(C)C(OC2CC(C)(OC)C(OC(=O)c3ccccc3)C(C)O2)C(C)C(OC2OC(C)CC(N(C)C)C2OC(=O)c2ccccc2)C2(C)CC(C)=C(O2)C1C (centres unmarked) [Compound 770, 2′,4″,13-Tri-O-benzoyl-8,9-Anhydro-pseudoerythromycin A 6,9-hemiketal] | 11 mm | E (Growth of test organism was inhibited 35% or less.) | 11 mm | E (Growth of test organism was inhibited 35% or less.) | 18 mm | E (Growth of test organism was inhibited 35% or less.) | 12 mm | E (Growth of test organism was inhibited 35% or less.) | 13 mm | C (Growth of test organism was inhibited 55% or more and 75% or less.) | 13 mm | A (Growth of test organism was inhibited 95% or more.) | 11 mm | D (Growth of test organism was inhibited 35% or more and 55% or less.) | – | – | 14 mm | C (Growth of test organism was inhibited 55% or more and 75% or less.) | – | – | Inhibition activity (inhibition ring mm) C. albicans ATCC 64548 GYF ([3]; 100 μg/8 mm disk): 11 mm; Transparency of the inhibition ring C. albicans ATCC 64548 GYF ([3]; 100 μg/8 mm disk): D (Growth of test organism was inhibited 35% or more and 55% or less.) |
| CCC1OC1(C)C1OC(=O)C(C)C(OC2CC(C)(OC)C(OS(=O)(=O)c3ccccc3)C(C)O2)C(C)C(OC2OC(C)CC(N(C)C)C2OC(C)=O)C2(C)CC(C)=C(O2)C1C (centres unmarked) [Compound 774, 2′-O-acetyl-4″-O-benzenesulfonyl-12,13-epoxy-8,9-Anhydro-pseudoerythromycin A 6,9-hemiketal] | 14 mm | E (Growth of test organism was inhibited 35% or less.) | – | – | 17 mm | E (Growth of test organism was inhibited 35% or less.) | 18 mm | D (Growth of test organism was inhibited 35% or more and 55% or less.) | 17 mm | A (Growth of test organism was inhibited 95% or more.) | 17 mm | A (Growth of test organism was inhibited 95% or more.) | – | – | – | – | – | – | 13 mm | E (Growth of test organism was inhibited 35% or less.) | Inhibition activity (inhibition ring mm) C. albicans ATCC 64550 GYF ([2]; 10 μg/8 mm disk): 13 mm; Transparency of the inhibition ring C. albicans ATCC 64550 GYF ([2]; 10 μg/8 mm disk): A (Growth of test organism was inhibited 95% or more.); Inhibition activity (inhibition ring mm) C. albicans ATCC 64550 GYM ([2]; 10 μg/8 mm disk): 14 mm; Transparency of the inhibition ring C. albicans ATCC 64550 GYM ([2]; 10 μg/8 mm disk): A (Growth of test organism was inhibited 95% or more.) |

From patent US20050176655A1, “Novel macrolide derivatives havaing effect of potentiating antifungal activity” (priority 2002, published 2005)
